The values below are quoted from earlier work in patent publication US20150150812A1, “CONTROLLED RELEASE FORMULATIONS WITH […]” (Egalet Ltd., priority 2009, published 2015).

This data set has as its system postoperative patients.

On to `CN1CC[C@]23c4c5ccc(O)c4O[C@H]2[C@@H](O)C=C[C@H]3[C@H]1C5` [morphine], for which the “Calculated mean (SD) MEAC” value (10 postoperative patients, Dahlström et al (1982)) is 16 (9) ng/mL. For the same compound, the “Estimated MEAC” value (postoperative patients, patient-controlled analgesia, Graves et al (1985)) was 20 to 40 ng/mL.
